Source: US6593299B1, “Compositions and methods for controlling pests” (priority 1999, dated 2003)
Ends that are not written are not given here.

Experiments:
[1] = tested on: trypsin biosynthesis in the midgut of female Aedes aegypti; experiment: NPF injected into blood-fed whole female mosquitoes, midgut trypsin biosynthesis; format: in vivo; conditions: whole blood-fed females, injected 0.25 μl at 10^−6 M, midguts assayed 30 hours later
Procedure: To determine whether NPF I and II affect trypsin biosynthesis in the midgut of female Aedes aegypti, females were fed a blood meal and immediately injected with 0.25 μl of the peptide at concentrations of 2.5 μg to 12.5 pg and 30 hours later the midguts were removed and assayed for trypsin biosynthesis (Borovsky et al., 1990 “Mosquito Oostatic Factor: A Novel Decapeptide Modulating Trypsin-Like Enzyme Biosynthesis in the Midgut” FASEB J. 4:3015-3020; Borovsky et al. 1993 “Mass Spectrometry and Characterization of Aedes aegypti Trypsin Modulating Oostatic Factor (TMOF) and its Analog” Insect Biochem. Molec. Biol. 23:703-712). Each experiment was repeated 3 times (5 females per group) and the results are expressed as % inhibition of trypsin biosynthesis±S.E.M. (FIG. 1).

[2] = molecular target: TMOF receptor (mosquito gut receptor) (Aedes aegypti); experiment: cell-based or functional assay
[3] = tested on: fourth instar Heliothis virescens; experiment: Feeding TMOF analogs to fourth instar H. virescens: larval weight; format: in vivo; conditions: fourth instar larvae
Procedure: (§1) Several analogues were chosen and were fed to fourth instar Heliothis virescens for seven (7) days and to first instars for fourteen (14) days (Tables 3 and 4). In both cases a reduction in weight gain and trypsin inhibition was noted (Tables 3 and 4).
(§2) Individual first instar and fourth instar larvae of H. virescens were maintained in separate plastic cups and were fed on artificial diet blocks on which different concentrations of TMOF (0 to 1.6 mg) were adsorbed. Larvae were fed for 5 to 14 days and larval weight and trypsin activity were measured at the end of the experimental periods. […] When first instar larvae were fed for 14 days, an 18% and 26% reduction in weight was observed when analogues 15 and 16 were used (Table 4).
Fourth instar larvae were weighed and fed on synthetic food and 0.8 mg of TMOF analogues for 5 days. […]. Results are average of 3 to 10 experiments S.E.M.

[4] = tested on: first instar Heliothis virescens; experiment: Feeding first instar H. virescens on TMOF analogs for 14 days; format: in vivo; parameters: Weight Reduction ± S.E.M.: concentration or dose not given beside the values; conditions: first instar larvae fed 14 days
Procedure: as §1, §2

[5] = tested on: TTLE biosynthesis; experiment: Feeding TMOF analogs to fourth instar H. virescens: gut trypsin (TTLE) biosynthesis by [3H]DFP; format: in vivo, Heliothis virescens; parameters: Trypsin: unit not given here; conditions: fourth instar larvae, 0.8 mg of analogue, 5 days
[6] = tested on: Aedes aegypti larvae; experiment: Feeding TMOF and analog peptides to mosquito larvae (LD50); format: in vivo; conditions: newly hatched larvae on autoclaved yeast 1 mg/ml, peptide 0 to 5.0 mg/ml, microtiter plates, 7 days
Excerpt: TMOF can traverse the gut epithelium, enter the hemolymph and bind a gut receptor (Borovsky, D. and F. Mahmood (1995) “Feeding the mosquito Aedes aegypti with TMOF and its analogs; effect on trypsin biosynthesis and egg development,” Regulatory Peptides 57:273-281.; Borovsky et al. (1994) “Characterization and localization of mosquito-gut receptors for trypsin modulating oostatic factor using complementary peptide immunochemistry”FASEB J. 8:350-355.). This characteristic permits the testing of TMOF and its analogues by feeding them to mosquito and other pest larvae. To find out if truncated TMOF peptides have an effect on larval growth and development, a series of peptides were synthesized and tested by feeding them to mosquito larvae at concentrations of 0 to 5.0 mg/ml (Table 2). Individual, newly hatched Aedes aegypti larvae were maintained in separate microtiter plate wells on a diet of autoclaved yeast (1 mg/ml). The diet was supplemented with TMOF peptides (Table 2). An identical number of larvae maintained on yeast served as a control. […] All control groups survived and larval growth and development was normal. Since larvae swallow only a small portion of the yeast particles adsorbed the peptides, it is assumed that approximately 1 to 20 ng are taken orally at the high concentrations.

For “Ala-Pro-Ser-Arg-Leu-Arg-Phe-amide (APSRLRF-NH2) [NPF II]”, the “% inhibition of trypsin biosynthesis” value [1] was 35%.
Substance “NPF I (Ala-Arg-Gly-Pro-Gln-Leu-Arg-Leu-Arg-Phe-amide) (peptide)” has an inhibition of trypsin biosynthesis (ligated abdomens of blood-fed female Aedes aegypti, 30 h after injection) (% inhibition at 10^-6 M) [2] of 54.
In the case of YSPAP [18. YSPAP, YSPAP], the “Weight Gain” value ([3]; 0.8 mg of analogue, 5 days) was 151 mg, the “Weight mg ± S.E.M. End” value ([3]; synthetic food and 0.8 mg of analogue, after 5 days) was 188 ± 10.6 mg and the “Weight mg ± S.E.M. Start” value ([3]; weight before feeding (baseline)) was 30.6 ± 1.2 mg. The “Number of Dead Larvae” value [4] was 0, the “Weight ± S.E.M.” value [4] was 168 ± 11 mg and the “Weight Reduction ± S.E.M.” value ([4]; versus control) was 0%. The Trypsin ([5]; guts incubated with [3H]DFP) was 2.0 ± 0.2, the “Inhibition (trypsin)” value ([5]; versus control) was 19 ± 2% and the “LD50 + S.E.M.” value [6] was 1.4 ± 0.03 mM.
